Laboratory results reported in US6087376A (priority 1998, dated 2000).

Assays:
[1] = test system: tachycardia and hypertension; conditions: in vivo; cited from earlier work
[2] = test system: nicotinic receptors in mouse brain; conditions: in vivo; cited from earlier work
[3] = test system: locomotor activity in rats; conditions: rat, in vivo; cited from earlier work
[4] = test system: anesthetized rats; conditions: urethane and pentobarbital anesthetized rats; cited from earlier work
[5] = test system: anxiolytic activity; conditions: in vivo; cited from earlier work
[6] = target: central nicotinic receptors; conditions: read-out: Ki, displacement of [3H]nicotine binding; cited from earlier work
[7] = test system: rat striatal slices; assay: Endogenous DA and DOPAC content in striatal slices following superfusion with lobeline; type: cell-based
Method: Data are presented as mean±S.E. ng/mg protein. *P<0.05, different from control, P<0.05, **P<0.001, different from control; Dunnett's post hoc test. n=8 rats.
At the end of the superfusion experiment, slices were processed in the endogenous DA and DOPAC content assay described below.
An aliquot (500 μL) of 0.1 M perchloric acid (pH 1.0) containing 0.14-0.29 μM 3,4-dihydroxybenzylamine hydrobromide (DHBA, internal standard) was added to 100 mg of striatum and the mixture was sonicated with an Ultrasonic Processor (40-Watt Model, Sonics & Materials, Danbury, Conn.). The homogenate was centrifuged at 30,000×g for 10 min at 4° C., and the supernatant was filtered (0.2 μm nylon membrane). An aliquot (50 μL) of the filtrate (1:1, 1:50, 1:100, 1:200 or 1:500 dilution with 0.1 M perchloric acid) was injected onto the high pressure liquid chromatograph with electrochemical detection (HPLC-EC) system. The HPLC-EC system consisted of syringe loading injector (Model 7725, Rheodyne L. P., Cotati, Calif.), Beckman Model 116 HPLC pump (Beckman, Fullerton, Calif.), ESA ODS ultrasphere C18 reverse-phase column ([…]×75 mm, 3 micron particle size, ESA, Bedford, Mass.), and an ESA 5100A coulometric electrochemical detector with a model 5011 detector cell (E1=+0.05 V, E2=+0.32 V). The eluent was 6% acetonitrile, 10 μM EDTA, 1.4 mM 1-octane-sulfonic acid and 76 mM sodium phosphate monobasic (pH 3.1). All separations were performed at room temperature at a flow rate of 1 ml/min. Complete separation of DA and DOPAC and reequilibration of the system required 9 min. The retention time of DA, DOPAC and DHBA standards was used to identify the relevant peak. Peak heights were used to calculate the detected amount of compound based on standard curves. The detection limit of DA and DOPAC was 0.2 and 0.05 pg/50 μL injected, respectively. Recovery of internal standard was routinely 75%.

[8] = test system: nicotine-evoked [3H]dopamine release from rat striatal slices; nicotinic receptors; assay: Lobeline inhibition of nicotine-evoked [3H]DA release from rat striatal slices; type: cell-based; conditions: low concentrations
Method: Striatal slices were obtained from rat brain, preincubated with [^3 H]dopamine (0.1 μM) for 30 min and subsequently superfused with Kreb's buffer for 60 min.

[9] = test system: mouse striatal synaptosomes; conditions: cited from earlier work
[10] = cited from earlier work
[11] = test system: rat striatal slices preloaded with [3H]DA; assay: [3H]DA release assay: drug-evoked [3H]overflow / fractional release from rat striatal slices preloaded with [3H]DA; type: cell-based
Method: Rat striata were rapidly dissected on ice and were sliced using a McIlwain tissue chopper. […] Slices were rinsed with 15 mL fresh buffer and then incubated in fresh buffer containing 0.1 μM [^3 H]DA (6-8 slices/3 mL) for an additional 30 min. Subsequently, slices were rinsed with 15 mL fresh buffer and transferred to a glass superfusion chamber. […] After 60 min of superfusion when basal outflow was stabilized, two 5-min samples (5 mL) were collected to determine basal [^3 H]outflow.
The concentration-response for each drug was determined using a repeated-measures design.
The pH and volume of the solubilized tissue samples were adjusted to those of the superfusate samples.
Fractional release for each superfusate sample was calculated by dividing the tritium collected in each sample by the total tritium present in the tissue at the time of sample collection. Fractional release was expressed as a percentage of total tritium in the tissue at the time of sample collection. Basal outflow was calculated from the average of the tritium collected in the two 5-min samples just before the addition of drug.
Inhibition of synaptosomal and vesicular [^3 H]DA uptake were analyzed by repeated-measures, one-way ANOVA, and by an iterative nonlinear least-squares curve-fitting program (GraphPAD-PRIZM; GraphPAD, San Diego, Calif.) to obtain IC50 values. Dunnett's post hoc test was used to compare treatment means to a single control mean. Also, Duncan's New Multiple Range Test or Fisher's LSD post hoc analysis were used to compare pairs of treatment means. Duncan's New Multiple Range Test was used when significant one-way ANOVA's were obtained or when significant main effects were obtained in the two-way ANOVA's. Fisher's LSD post hoc analysis is a more conservative test, which takes into account error which cumulates during multiple comparisons of pairs of means. Fisher's LSD analysis was used when the interaction term was significant in the two-way ANOVAs, specifically in the post hoc analysis of drug×time interactions. Statistical significance was reached when P<0.05 (two-tailed, unless otherwise indicated).

[12] = test system: learning and memory; conditions: in vivo; cited from earlier work

CN1[C@@H](CC(=O)c2ccccc2)CCC[C@H]1C[C@H](O)c1ccccc1 [Lobeline, 2-[G-(β-hydroxyphenethyl)-1-methyl-2-piperidyl]-acetophenone]
cardiovascular effects [1]: tachycardia and hypertension
number of nicotinic receptors after chronic treatment [2]: did not increase the number of nicotinic receptors
locomotor activity [3]: does not increase locomotor activity
cardiovascular effects [4]: bradycardia and hypotension
anxiolytic activity [5]: anxiolytic activity
Ki [6]: 0.005 to 0.03 µM
DOPAC overflow from rat striatal slices [7]: DOPAC overflow from rat striatal slices is observed
effect on DA or DOPAC content in superfused slices ([7]; lobeline 0.1-10 μM, 60 min): did not alter DA or DOPAC content
effect on endogenous DA content in superfused slices ([7]; lobeline 30-100 μM, 60 min): significantly depleted endogenous DA content
effect on endogenous DOPAC content in superfused slices ([7]; lobeline 30-100 μM, 60 min): increased DOPAC content
concentrations inhibiting nicotine-evoked DA release [8]: 0.1 to 1 µM
DA release from superfused striatal synaptosomes [9]: increase DA release
pKa [10]: 8.3
effect on fractional release ([11]; 3 μM, 15 and 20 min after addition): significant increase in fractional release
effect on fractional release (low concentrations) ([11]; 0.01-1 μM, entire superfusion period): did not significantly increase fractional release
effect on fractional release (high concentrations) ([11]; 10-100 μM, from 10 min after addition to end): significantly increased
calcium-dependency of [3H]overflow ([11]; calcium-free buffer vs control): not altered
effect on [3H]overflow compared to nicotine ([11]; higher concentrations (10-100 μM)): 8-34 fold
time of peak effect after start of exposure ([11]; lobeline): 10 to 20 min
total [3H]overflow ([11]; lobeline 0.1 μM, calcium-free buffer with 0.5 mM EGTA): 0 ± 0
total [3H]overflow ([11]; lobeline 0.1 μM, control buffer): 0.6 ± 0.4
total [3H]overflow ([11]; lobeline 1 μM, calcium-free buffer with 0.5 mM EGTA): 2.9 ± 0.2
total [3H]overflow ([11]; lobeline 1 μM, control buffer): 2.0 ± 0.6
total [3H]overflow ([11]; lobeline 10 μM, calcium-free buffer with 0.5 mM EGTA): 45.0 ± 4.2
total [3H]overflow ([11]; lobeline 10 μM, control buffer): 31.9 ± 2.2
peak fractional release ([11]; lobeline 30 μM): approximately 15 % of total tritium in the slice
peak fractional release ([11]; lobeline 100 μM): ~30 % of total tritium in the slice
total [3H]overflow ([11]; lobeline 100 μM, calcium-free buffer with 0.5 mM EGTA): 185.0 ± 12.0
total [3H]overflow ([11]; lobeline 100 μM, control buffer): 198.0 ± 20
fractional release over the remainder of the superfusion period ([11]; lobeline 30 and 100 μM): 10-20 % of total tritium in the slice
minimal effective concentration ([11]; read-out: lowest concentration which evoked a significant increase in [3H]overflow): 1 µM
learning and memory [12]: improvement of learning and memory
